Key:
BTK enzyme = target: T1, BTK enzyme (Homo sapiens, UniProt Q06187); assay: In vitro BTK kinase assay: BTK-POLYGAT-LS assay; assay type: biochemical; settings: ATP 10 μM, read-out: IC50 (10uMATP)
T1 construct: purchased Upstate 14-552
Method in brief: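 Human BTK activity was measured with final 10 μM ATP and 100 nM polyGAT substrate in pH 7.5 Tris buffer with 10 mM MgCl2, DTT, Triton X-100 and casein.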

[1] = target: BTK (phospho-BTK) in human whole blood (Homo sapiens, UniProt Q06187); assay: In vitro PD assay in human whole blood (pBTK assay)
Chain of BTK (phospho-BTK) in human whole blood (Q06187 whole entry): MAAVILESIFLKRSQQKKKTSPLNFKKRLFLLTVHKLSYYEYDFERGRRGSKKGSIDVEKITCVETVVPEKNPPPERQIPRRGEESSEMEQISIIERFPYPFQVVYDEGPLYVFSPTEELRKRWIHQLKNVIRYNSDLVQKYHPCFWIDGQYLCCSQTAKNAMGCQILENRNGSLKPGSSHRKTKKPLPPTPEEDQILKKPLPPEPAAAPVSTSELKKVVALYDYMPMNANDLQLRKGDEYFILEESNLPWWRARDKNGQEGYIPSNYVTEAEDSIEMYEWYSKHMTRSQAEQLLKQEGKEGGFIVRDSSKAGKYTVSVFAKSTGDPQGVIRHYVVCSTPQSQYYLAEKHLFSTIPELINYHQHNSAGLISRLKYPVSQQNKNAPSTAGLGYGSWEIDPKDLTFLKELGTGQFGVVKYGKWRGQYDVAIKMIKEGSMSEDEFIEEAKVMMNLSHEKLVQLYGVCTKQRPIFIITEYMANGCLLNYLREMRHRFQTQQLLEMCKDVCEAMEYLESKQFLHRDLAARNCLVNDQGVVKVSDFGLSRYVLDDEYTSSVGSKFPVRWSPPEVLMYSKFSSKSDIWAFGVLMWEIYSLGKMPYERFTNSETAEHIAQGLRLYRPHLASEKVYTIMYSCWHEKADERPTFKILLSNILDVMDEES

T1 sequence (Q06187 whole entry): as above

| Structure (SMILES) | IC50 (BTK enzyme) | IC50 [1] |
| --- | --- | --- |
| Cc1cc(-c2ccnc(Nc3cnn(C4CN(C)C4)c3)n2)ccc1CNC(=O)N1CC(OC(C)(C)C)C1 [Example I-215, 3-(tert-butoxy)-N-(2-methyl-4-(2-((1-(1-methylazetidin-3-yl)-1H-pyrazol-4-yl)amino)pyrimidin-4-yl)benzyl) azetidine-1-carboxamide] | < 10 nM | < 500 nM |
| CCn1cc(Nc2nccc(-c3ccc(CNC(=O)N4CC(OC(C)(C)C)C4)c(C)c3)n2)cn1 [Example I-216, 3-(tert-butoxy)-N-(4-(2-((1-ethyl-1H-pyrazol-4-yl)amino)pyrimidin-4-yl)-2-methylbenzyl)azetidine-1-carboxamide] | < 10 nM | < 500 nM |
| Cc1cc(-c2ccnc(Nc3cnn(CCO)c3)n2)ccc1CNC(=O)N1CC(OC(C)C)C1 [Example I-217, N-(4-(2-((1-(2-hydroxyethyl)-1H-pyrazol-4-yl)amino)pyrimidin-4-yl)-2-methylbenzyl)-3-isopropoxyazetidine-1-carboxamide] | < 10 nM | < 500 nM |
| Cc1cc(-c2ccnc(Nc3cnn(C4CN(C)C4)c3)n2)ccc1CNC(=O)N1CC(OC(C)C)C1 [Example I-218, 3-isopropoxy-N-(2-methyl-4-(2-((1-(1-methylazetidin-3-yl)-1H-pyrazol-4-yl)amino)pyrimidin-4-yl)benzyl)azetidine-1-carboxamide] | < 10 nM | < 500 nM |
| Cc1cc(-c2ccnc(Nc3cnn(C4CCN(C)CC4)c3)n2)ccc1CNC(=O)N1CC(OC(C)C)C1 [Example I-219, 3-isopropoxy-N-(2-methyl-4-(2-((1-(1-methylpiperidin-4-yl)-1H-pyrazol-4-yl)amino)pyrimidin-4-yl)benzyl)azetidine-1-carboxamide] | < 10 nM | < 500 nM |
| Cc1cc(-c2ccnc(Nc3cnn(C4CCOCC4)c3)n2)ccc1CNC(=O)N1CC(OC(C)C)C1 [Example I-221, 3-isopropoxy-N-(2-methyl-4-(2-((1-(tetrahydro-2H-pyran-4-yl)-1H-pyrazol-4-yl)amino)pyrimidin-4-yl)benzyl)azetidine-1-carboxamide] | < 10 nM | < 500 nM |
| Cc1cc(-c2ccnc(Nc3cn[nH]c3)n2)ccc1CNC(=O)N1CC(OC(C)C)C1 [Example I-222, N-(4-(2-((1H-pyrazol-4-yl)amino)pyrimidin-4-yl)-2-methylbenzyl)-3-isopropoxyazetidine-1-carboxamide] | < 10 nM | 500 to 1500 nM |
| Cc1cc(-c2ccnc(Nc3cnn(C)c3C)n2)ccc1CNC(=O)N1CC(OC(C)(C)C)C1 [Example I-223, 3-(tert-butoxy)-N-(4-(2-((1,5-dimethyl-1H-pyrazol-4-yl)amino)pyrimidin-4-yl)-2-methylbenzyl)azetidine-1-carboxamide] | < 10 nM | 500 to 1500 nM |
| Cc1cc(-c2ccnc(Nc3cnn(C)c3)n2)ccc1CNC(=O)N1CCC(C(C)(C)C)C1 (stereo not shown) [Example I-224, 3-(tert-butyl)-N-(2-methyl-4-(2-((1-methyl-1H-pyrazol-4-yl)amino)pyrimidin-4-yl)benzyl)pyrrolidine-1-carboxamide] | < 10 nM | < 500 nM |
| Cc1cc(-c2cc(Nc3ccc(N4CCN(C)CC4)cn3)ncn2)ccc1CNC(=O)c1cnn(C(C)(C)C)c1 [Example I-225, 1-(tert-butyl)-N-(2-methyl-4-(6-((5-(4-methylpiperazin-1-yl)pyridin-2-yl)amino)pyrimidin-4-yl)benzyl)-1H-pyrazole-4-carboxamide] | < 10 nM | < 500 nM |
| Cc1cc(-c2cc(Nc3ccc(N4CCN(C)CC4)cn3)ncn2)ccc1CNC(=O)c1ccn(C(C)(C)C)n1 [Example I-226, 1-(tert-butyl)-N-(2-methyl-4-(6-((5-(4-methylpiperazin-1-yl)pyridin-2-yl)amino)pyrimidin-4-yl)benzyl)-1H-pyrazole-3-carboxamide] | < 10 nM | < 500 nM |
| COCCn1cc(Nc2nccc(-c3ccc4c(c3)CCCC[C@H]4NC(=O)N3CC(OC(C)C)C3)n2)cn1 [Example I-227, (R)-3-isopropoxy-N-(2-(2-((1-(2-methoxyethyl)-1H-pyrazol-4-yl)amino)-pyrimidin-4-yl)-6,7,8,9-tetrahydro-5H-benzo[7]annulen-5-yl)azetidine-1-carboxamide] | < 10 nM | < 500 nM |
| CC(C)(C)OC1CN(C(=O)N[C@@H]2CCCCc3cc(-c4ccnc(Nc5cnn(CCO)c5)n4)ccc32)C1 [Example I-229, (R)-3-(tert-butoxy)-N-(2-(2-((1-(2-hydroxyethyl)-1H-pyrazol-4-yl)amino)-pyrimidin-4-yl)-6,7,8,9-tetrahydro-5H-benzo[7]annulen-5-yl)azetidine-1-carboxamide] | < 10 nM | < 500 nM |
| Cc1cc(-c2cc(Nc3cc4n(n3)CCNC4)ncn2)ccc1CNC(=O)c1cnn(C(C)(C)C)c1 [Example I-231, 1-(tert-butyl)-N-(2-methyl-4-(6-((4,5,6,7-tetrahydropyrazolo[1,5-a]pyrazin-2-yl)amino)-pyrimidin-4-yl)benzyl)-1H-pyrazole-4-carboxamide] | < 10 nM | < 500 nM |
| CCN1CCn2nc(Nc3cc(-c4ccc(CNC(=O)c5cnn(C(C)(C)C)c5)c(C)c4)ncn3)cc2C1 [Example I-232, 1-(tert-butyl)-N-(4-(6-((5-ethyl-4,5,6,7-tetrahydropyrazolo[1,5-a]pyrazin-2-yl)amino)pyrimidin-4-yl)-2-methylbenzyl)-1H-pyrazole-4-carboxamide] | < 10 nM | < 500 nM |
| Cc1cc(-c2cc(Nc3cc4n(n3)CCN(CCO)C4)ncn2)ccc1CNC(=O)c1cnn(C(C)(C)C)c1 [Example I-233, 1-(tert-butyl)-N-(4-(6-((5-(2-hydroxyethyl)-4,5,6,7-tetrahydropyrazolo[1,5-a]pyrazin-2-yl)amino)pyrimidin-4-yl)-2-methylbenzyl)-1H-pyrazole-4-carboxamide] | < 10 nM | < 500 nM |
| Cc1cc(-c2cc(Nc3cc4n(n3)CCCNC4)ncn2)ccc1CNC(=O)c1cnn(C(C)(C)C)c1 [Example I-234, 1-(tert-butyl)-N-(2-methyl-4-(6-((5,6,7,8-tetrahydro-4H-pyrazolo[1,5-a][1,4]diazepin-2-yl)amino)pyrimidin-4-yl)benzyl)-1H-pyrazole-4-carboxamide] | < 10 nM | < 500 nM |
| Cc1cc(-c2cc(Nc3cc4n(n3)CCCN(CCO)C4)ncn2)ccc1CNC(=O)c1cnn(C(C)(C)C)c1 [Example I-235, 1-(tert-butyl)-N-(4-(6-((5-(2-hydroxyethyl)-5,6,7,8-tetrahydro-4H-pyrazolo[1,5-a][1,4]diazepin-2-yl)amino)pyrimidin-4-yl)-2-methylbenzyl)-1H-pyrazole-4-carboxamide] | < 10 nM | < 500 nM |
| Cc1cc(-c2cc(Nc3cc4n(n3)CCCN(C)C4)ncn2)ccc1CNC(=O)c1cnn(C(C)(C)C)c1 [Example I-236, 1-(tert-butyl)-N-(2-methyl-4-(6-((5-methyl-5,6,7,8-tetrahydro-4H-pyrazolo[1,5-a][1,4]diazepin-2-yl)amino)pyrimidin-4-yl)benzyl)-1H-pyrazole-4-carboxamide] | < 10 nM | < 500 nM |
| Cc1cc(-c2cc(Nc3cc4n(n3)CCOC4)ncn2)ccc1CNC(=O)c1cnn(C(C)(C)C)c1 [Example I-237, 1-(tert-butyl)-N-(4-(6-((6,7-dihydro-4H-pyrazolo[5,1-c][1,4]oxazin-2-yl)amino)pyrimidin-4-yl)-2-methylbenzyl)-1H-pyrazole-4-carboxamide] | < 10 nM | < 500 nM |
| CCC1CN(C(=O)NCc2ccc(-c3ccnc(Nc4cnn(C)c4)n3)cc2C)C1 [Example I-238, 3-Ethyl-N-(2-methyl-4-(2-((1-methyl-1H-pyrazol-4-yl)amino)pyrimidin-4-yl)benzyl)azetidine-1-carboxamide] | < 10 nM | < 500 nM |
| Cc1cc(-c2cc(Nc3cc4n(n3)CC(=O)N(C)C4)ncn2)ccc1CNC(=O)N1CC(OC(C)(C)C)C1 [Example I-239, 3-(tert-butoxy)-N-(2-methyl-4-(6-((5-methyl-6-oxo-4,5,6,7-tetrahydropyrazolo-[1,5-a]pyrazin-2-yl)amino)pyrimidin-4-yl)benzyl) azetidine-1-carboxamide] | < 10 nM | < 500 nM |
| CN1CCn2nc(Nc3cc(-c4ccc(CNC(=O)c5cnn(C(C)(C)C)c5)c(Cl)c4)ncn3)cc2C1 [Example I-240, 1-(tert-butyl)-N-(2-chloro-4-(6-((5-methyl-4,5,6,7-tetrahydropyrazolo[1,5-a]-pyrazin-2-yl)amino)pyrimidin-4-yl)benzyl)-1H-pyrazole-4-carboxamide] | < 10 nM | < 500 nM |
| CN1CCn2nc(Nc3cc(-c4ccc(CNC(=O)c5cnn(C(C)(C)C)c5)c(C(F)(F)F)c4)ncn3)cc2C1 [Example I-241, 1-(tert-butyl)-N-(4-(6-((5-methyl-4,5,6,7-tetrahydropyrazolo[1,5-a]pyrazin-2-yl)amino)pyrimidin-4-yl)-2-(trifluoromethyl)benzyl)-1H-pyrazole-4-carboxamide] | < 10 nM | < 500 nM |
| Cc1cc(-c2cc(Nc3cc4n(n3)CCS(=O)(=O)C4)ncn2)ccc1CNC(=O)c1cnn(C(C)(C)C)c1 [Example I-242, 1-(tert-butyl)-N-(4-(6-((5,5-dioxido-6,7-dihydro-4H-pyrazolo[5,1-c][1,4]thiazin-2-yl)amino)pyrimidin-4-yl)-2-methylbenzyl)-1H-pyrazole-4-carboxamide] | < 10 nM | < 500 nM |
| [2H]C([2H])([2H])n1cc(Nc2cc(-c3ccc(CNC(=O)N4CC(OC(C)C)C4)c(C)c3)ncn2)cn1 [Example I-243, 3-isopropoxy-N-(2-methyl-4-(6-((1-d3-methyl-1H-pyrazol-4-yl)amino)pyrimidin-4-yl)benzyl)azetidine-1-carboxamide] | < 10 nM | < 500 nM |

Source: patent publication US10759783B2, “Biaryl inhibitors of Bruton'S tyrosine kinase” (BIOGEN MA INC., priority 2013, dated 2020)
